According to patent US12358932B2, “Chemical compounds” (BORAH, INC., priority 2019, dated 2025):

The compounds below were run against T1, Recombinant human PDE4B (Homo sapiens, UniProt Q07343) (assay: PDE4B Phosphodiesterase Assay). Settings: compound list; + = noted target activity.
T1 construct: aa 305-end; GST (N); made in house; host or cells: Sf9 insect cells (baculovirus)
Type: biochemical
Parameters: key to Activity Note: PDE4: The (+) symbols identify a compound of the present disclosure with the noted target activity; +*: The (*) symbols indicate preferential activity, where the greater number identifies the most preferred compounds; +**: The (*) symbols indicate preferential activity, where the greater number identifies the most preferred compounds; +***: The (*) symbols indicate preferential activity, where the greater number identifies the most preferred compounds
Method: The assay is based on the fluorescence polarization measuring AMP/GMP production as a result of the enzyme activity by displacement of Tracer binding to the AMP/GMP antibody. • Reaction Buffer: 10 mM Tris-HCl, pH 7.5, 5 mM MgCl2, 0.01% Brij 35, 1 mM DTT and 1% DMSO. • Enzyme: Recombinant human PDE4B (Gene Accession #NM_002600; aa 305-end) was expressed by baculovirus in Sf9 insect cells using an N-terminal GST tag. Mw=78 kDa. • Substrate: 1 μM cAMP • Detection: Transcreener® AMP2/GMP2 Antibody AMP2/GMP2 AlexaFluor 633 Tracer Reaction Procedure: • 1. Prepared indicated enzyme and substrate in freshly prepared Reaction Buffer • 2. Delivered enzyme solution into the reaction well • 3. Delivered compounds in 100% DMSO into the enzyme solution by Acoustic technology (Echo550; nanoliter range), incubated for 10 min at room temperature • 4. Delivered substrate solution into the reaction well to initiate the reaction • 5. Incubated for 1 h at room temperature • 6. Added detection mixture (Tracer and antibody in the stop buffer) to stop the reaction and incubated for 90 min with gentle mixing. The fluorescence polarization was measured at Ex/Em 620/688.
Data Analysis: The FP signals were converted into nM product based on an AMP/GMP standard curve and calculated % Enzyme activity relative to DMSO control by Excel. The curve fit was performed using GraphPad prism.

T1 sequence (Q07343 305-736 limits assumed): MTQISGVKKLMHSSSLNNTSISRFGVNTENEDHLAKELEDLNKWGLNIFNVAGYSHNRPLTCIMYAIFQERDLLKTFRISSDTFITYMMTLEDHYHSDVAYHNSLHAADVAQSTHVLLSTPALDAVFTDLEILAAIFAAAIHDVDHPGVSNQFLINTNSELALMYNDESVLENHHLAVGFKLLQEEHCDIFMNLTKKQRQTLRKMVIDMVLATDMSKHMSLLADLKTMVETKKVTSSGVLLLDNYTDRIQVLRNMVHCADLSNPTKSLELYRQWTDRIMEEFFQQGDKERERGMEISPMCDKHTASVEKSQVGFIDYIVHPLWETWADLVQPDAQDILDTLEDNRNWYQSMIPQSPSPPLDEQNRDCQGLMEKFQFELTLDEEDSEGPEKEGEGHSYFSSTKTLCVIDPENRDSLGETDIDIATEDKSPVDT

Structure (SMILES)	Activity Note: PDE4
CCOC(=O)c1cccc(Nc2nc(Nc3ccc4c(c3)COB4O)ncc2C)c1 [ethyl 3-((2-((1-hydroxy-1,3-dihydrobenzo[c][1,2]oxaborol-5-yl)amino)-5-methylpyrimidin-4-yl)amino)benzoate]	+
CS(=O)(=O)c1nc(Nc2ccc3c(c2)COB3O)ncc1Cl [5-((5-chloro-4-(methylsulfonyl)pyrimidin-2-yl)amino)benzo[c][1,2]oxaborol-1(3H)-ol]	+
Cc1cnc(Nc2ccc3c(c2)COB3O)nc1NCc1ccc(Cl)cc1 [5-((4-((4-chlorobenzyl)amino)-5-methylpyrimidin-2-yl)amino)benzo[c][1,2]oxaborol-1(3H)-ol]	+
Cc1cnc(Nc2ccc3c(c2)COB3O)nc1NC1CC1 [5-((4-(cyclopropylamino)-5-methylpyrimidin-2-yl)amino)benzo[c][1,2]oxaborol-1(3H)-ol]	+
OB1OCc2cc(Nc3ncc(C(F)(F)F)c(NCCC4CC4)n3)ccc21 [5-((4-((2-cyclopropylethyl)amino)-5-(trifluoromethyl)pyrimidin-2-yl)amino)benzo[c][1,2]oxaborol-1(3H)-ol]	+
OB1OCc2cc(Nc3ncc(F)c(NCc4ccccc4)n3)ccc21 [5-((4-(benzylamino)-5-fluoropyrimidin-2-yl)amino)benzo[c][1,2]oxaborol-1(3H)-ol]	+
Cc1cnc(Nc2ccc3c(c2)COB3O)nc1Nc1ccccc1F [5-((4-((2-fluorophenyl)amino)-5-methylpyrimidin-2-yl)amino)benzo[c][1,2]oxaborol-1(3H)-ol]	+
CCC(CC)Nc1nc(Nc2ccc3c(c2)COB3O)ncc1C#N [2-((1-hydroxy-1,3-dihydrobenzo[c][1,2]oxaborol-5-yl)amino)-4-(pentan-3-ylamino) pyrimidine-5-carbonitrile]	+
CCC(CO)Nc1nc(Nc2ccc3c(c2)COB3O)ncc1C (centres unmarked) [5-((4-((1-hydroxybutan-2-yl)amino)-5-methylpyrimidin-2-yl)amino)benzo[c][1,2]oxaborol-1(3H)-ol]	+
CCC(C)Nc1nc(Nc2ccc3c(c2)COB3O)ncc1C(F)(F)F (centres unmarked) [5-((4-(sec-butylamino)-5-(trifluoromethyl)pyrimidin-2-yl)amino)benzo[c][1,2]oxaborol-1(3H)-ol]	+
CCCNc1nc(Nc2ccc3c(c2)COB3O)ncc1F [5-((5-fluoro-4-(propylamino)pyrimidin-2-yl)amino)benzo[c][1,2]oxaborol-1(3H)-ol]	+
CCC(CC)Nc1nc(Nc2ccc3c(c2)COB3O)ncc1Cl [5-((5-chloro-4-(pentan-3-ylamino)pyrimidin-2-yl)amino)benzo[c][1,2]oxaborol-1(3H)-ol]	+
Cc1cnc(Nc2ccc3c(c2)COB3O)nc1NCc1ccccc1 [5-((4-(benzylamino)-5-methylpyrimidin-2-yl)amino)benzo[c][1,2]oxaborol-1(3H)-ol]	+
CCC(Nc1nc(Nc2ccc3c(c2)COB3O)ncc1C)c1ccccc1 (centres unmarked) [5-((5-methyl-4-((1-phenylpropyl)amino)pyrimidin-2-yl)amino)benzo[c][1,2]oxaborol-1(3H)-ol]	+
Cc1cnc(Nc2ccc3c(c2)COB3O)nc1Nc1cccc(CO)c1 [5-((4-((3-(hydroxymethyl)phenyl)amino)-5-methylpyrimidin-2-yl)amino)benzo[c][1,2]oxaborol-1(3H)-ol]	+
CCCC(CC)Nc1nc(Nc2ccc3c(c2)COB3O)ncc1F (centres unmarked) [5-((5-fluoro-4-(hexan-3-ylamino)pyrimidin-2-yl)amino)benzo[c][1,2]oxaborol-1(3H)-ol]	+
OB1OCc2cc(Nc3ncc(Cl)c(NC4CCCC4)n3)cc(F)c21 [5-((5-chloro-4-(cyclopentylamino)pyrimidin-2-yl)amino)-7-fluorobenzo[c][1,2]oxaborol-1(3H)-ol]	+
Cc1cnc(Nc2ccc3c(c2)COB3O)nc1NCc1ccc(F)cc1 [5-((4-((4-fluorobenzyl)amino)-5-methylpyrimidin-2-yl)amino)benzo[c][1,2]oxaborol-1(3H)-ol]	+
Cc1cnc(Nc2ccc3c(c2)COB3O)nc1OC1CCCCC1 [5-((4-(cyclohexyloxy)-5-methylpyrimidin-2-yl)amino)benzo[c][1,2]oxaborol-1(3H)-ol]	+

Structure (SMILES)	Activity Note: PDE4
CSc1nc(Nc2ccc3c(c2)COB3O)ncc1Cl [5-((5-chloro-4-(methylthio)pyrimidin-2-yl)amino)benzo[c][1,2]oxaborol-1(3H)-ol]	+
OB1OCc2cc(Nc3ncc(C(F)(F)F)c(NC4CCCCC4)n3)ccc21 [5-((4-(cyclohexylamino)-5-(trifluoromethyl)pyrimidin-2-yl)amino)benzo[c][1,2]oxaborol-1(3H)-ol]	+
Cc1cnc(Nc2ccc3c(c2)COB3O)nc1NC1CCCC(C)C1 (centres unmarked) [5-((5-methyl-4-((3-methylcyclohexyl)amino)pyrimidin-2-yl)amino)benzo[c][1,2]oxaborol-1(3H)-ol]	+
Cc1cnc(Nc2ccc3c(c2)COB3O)nc1Nc1ccccc1Cl [5-((4-((2-chlorophenyl)amino)-5-methylpyrimidin-2-yl)amino)benzo[c][1,2]oxaborol-1(3H)-ol]	+
Cc1cnc(Nc2ccc3c(c2)COB3O)nc1Nc1cccc2c1C(=O)N(CCF)C2 [2-(2-fluoroethyl)-7-((2-((1-hydroxy-1,3-dihydrobenzo[c][1,2]oxaborol-5-yl)amino)-5-methylpyrimidin-4-yl)amino)isoindolin-1-one]	+
Cc1cnc(Nc2ccc3c(c2)COB3O)nc1NC1CCC(C)CC1 (centres unmarked) [5-((5-methyl-4-((4-methylcyclohexyl)amino)pyrimidin-2-yl)amino)benzo[c][1,2]oxaborol-1(3H)-ol]	+
CCC(CC)Nc1nc(Nc2ccc3c(c2)COB3O)ncc1F [5-((5-fluoro-4-(pentan-3-ylamino)pyrimidin-2-yl)amino)benzo[c][1,2]oxaborol-1(3H)-ol]	+
Cc1cnc(Nc2ccc3c(c2)COB3O)nc1OC1CCCC1 [5-((4-(cyclopentyloxy)-5-methylpyrimidin-2-yl)amino)benzo[c][1,2]oxaborol-1(3H)-ol]	+
CCC(CC)Nc1nc(Nc2cc(F)c3c(c2)COB3O)ncc1C(F)(F)F [7-fluoro-5-((4-(pentan-3-ylamino)-5-(trifluoromethyl)pyrimidin-2-yl)amino)benzo[c][1,2]oxaborol-1(3H)-ol]	+
OB1OCc2cc(Nc3nccc(NC4CCCC4)n3)ccc21 [5-((4-(cyclopentylamino)pyrimidin-2-yl)amino)benzo[c][1,2]oxaborol-1(3H)-ol]	+
Cc1cnc(Nc2ccc3c(c2)COB3O)nc1NCc1cccc(F)c1 [5-((4-((3-fluorobenzyl)amino)-5-methylpyrimidin-2-yl)amino)benzo[c][1,2]oxaborol-1(3H)-ol]	+
Cc1cnc(Nc2ccc3c(c2)COB3O)nc1NC(CCF)CCF [5-((4-((1,5-difluoropentan-3-yl)amino)-5-methylpyrimidin-2-yl)amino)benzo[c][1,2]oxaborol-1(3H)-ol]	+
Cc1cnc(Nc2ccc3c(c2)COB3O)nc1NCc1cccc(Cl)c1 [5-((4-((3-chlorobenzyl)amino)-5-methylpyrimidin-2-yl)amino)benzo[c][1,2]oxaborol-1(3H)-ol]	+
Cc1cnc(Nc2ccc3c(c2)COB3O)nc1Nc1ccccc1OC(F)(F)F [5-((5-methyl-4-((2-(trifluoromethoxy)phenyl)amino)pyrimidin-2-yl)amino)benzo[c][1,2]oxaborol-1(3H)-ol]	+
OB1OCc2cc(Nc3ncc(F)c(NC4CCCCC4)n3)ccc21 [5-((4-(cyclohexylamino)-5-fluoropyrimidin-2-yl)amino)benzo[c][1,2]oxaborol-1(3H)-ol]	+
CCCC(CC)Nc1nc(Nc2ccc3c(c2)COB3O)ncc1Cl (centres unmarked) [5-((5-chloro-4-(hexan-3-ylamino)pyrimidin-2-yl)amino)benzo[c][1,2]oxaborol-1(3H)-ol]	+
COc1ccccc1Nc1nc(Nc2ccc3c(c2)COB3O)ncc1C [5-((4-((2-methoxyphenyl)amino)-5-methylpyrimidin-2-yl)amino)benzo[c][1,2]oxaborol-1(3H)-ol]	+
OB1OCc2cc(Nc3ncc(F)c(NC4CCCC4)n3)ccc21 [5-((4-(cyclopentylamino)-5-fluoropyrimidin-2-yl)amino)benzo[c][1,2]oxaborol-1(3H)-ol]	+
CCC(CC)Nc1nc(Nc2ccc3c(c2)COB3O)ncc1C(F)(F)F [5-((4-(pentan-3-ylamino)-5-(trifluoromethyl)pyrimidin-2-yl)amino)benzo[c][1,2]oxaborol-1(3H)-ol]	+
